In the supplement of paper PMC10307832:

Assays:
Experiment in all cases: relative viability (nuclei count vs DMSO), 5 days (fraction); higher = more cells survive
NCI-H1793 = tested on: NCI-H1793
How it was run: (§1)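 Lung cancer cell lines were seeded in 1536-well plates and dosed by pin tool the next day, with either a single drug or a fixed anchor-drug dose combined with five library-drug doses (not always all listed) spaced in √10 steps. Five days later, one step fixed the cells and stained their nuclei (final 0.05% Triton X-100, 1% formaldehyde, 1 ug/ml Hoechst), and nuclei were counted on 4× images. Relative viability is the nuclei count in treated wells divided by the count in vehicle wells, and each value is the median of duplicate plates.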

HCC-44 = tested on: HCC-44
How it was run: as §1

NCI-H1355 = tested on: NCI-H1355
How it was run: as §1

NCI-H520 = tested on: NCI-H520
How it was run: as §1

NCI-H596 = tested on: NCI-H596
How it was run: as §1

H3255 = tested on: H3255
How it was run: as §1

NCI-H441 = tested on: NCI-H441
How it was run: as §1

LCLC-103H = tested on: LCLC-103H
How it was run: as §1

NCI-H647 = tested on: NCI-H647
How it was run: as §1

HCC-827 = tested on: HCC-827
How it was run: as §1

EKVX = tested on: EKVX
How it was run: as §1

NCI-H1755 = tested on: NCI-H1755
How it was run: as §1

HOP-62 = tested on: HOP-62
How it was run: as §1

HCC-15 = tested on: HCC-15
How it was run: as §1

PC-3 [JPC-3] = tested on: PC-3 [JPC-3]
How it was run: as §1

NCI-H2009 = tested on: NCI-H2009
How it was run: as §1

UMC-11 = tested on: UMC-11
How it was run: as §1

EPLC-272H = tested on: EPLC-272H
How it was run: as §1

201T = tested on: 201T
How it was run: as §1

COR-L 105 = tested on: COR-L 105
How it was run: as §1

SK-LU-1 = tested on: SK-LU-1
How it was run: as §1

NCI-H1437 = tested on: NCI-H1437
How it was run: as §1

CAL-12T = tested on: CAL-12T
How it was run: as §1

NCI-H322M = tested on: NCI-H322M
How it was run: as §1

NCI-H522 = tested on: NCI-H522
How it was run: as §1

Nc1cccc2c1CN(C1CCC(=O)NC1=O)C2=O (centres undefined) [Lenalidomide] + N=C(N)NC(=N)NCCc1ccccc1 [Phenformin] (partner 250 µM)
relative viability (NCI-H1793; first compound 0.253 µM): 0.384
relative viability (NCI-H1793; first compound 2.53 µM): 0.515
relative viability (NCI-H1793; first compound 8 µM): 0.344
relative viability (HCC-44; first compound 0.253 µM): 0.272
relative viability (HCC-44; first compound 2.53 µM): 0.184
relative viability (HCC-44; first compound 8 µM): 0.216
relative viability (NCI-H1355; first compound 0.253 µM): 0.485
relative viability (NCI-H1355; first compound 2.53 µM): 0.462
relative viability (NCI-H1355; first compound 8 µM): 0.399
relative viability (NCI-H520; first compound 0.253 µM): 0.579
relative viability (NCI-H520; first compound 0.8 µM): 0.481
relative viability (NCI-H520; first compound 2.53 µM): 0.658
relative viability (NCI-H520; first compound 8 µM): 0.257
relative viability (NCI-H596; first compound 0.253 µM): 0.752
relative viability (NCI-H596; first compound 2.53 µM): 0.911
relative viability (NCI-H596; first compound 8 µM): 0.635
relative viability (H3255; first compound 0.253 µM): 0.331
relative viability (H3255; first compound 0.8 µM): 0.38
relative viability (H3255; first compound 2.53 µM): 0.329
relative viability (H3255; first compound 8 µM): 0.386
relative viability (NCI-H441; first compound 0.253 µM): 0.827
relative viability (NCI-H441; first compound 0.8 µM): 0.958
relative viability (NCI-H441; first compound 2.53 µM): 0.949
relative viability (NCI-H441; first compound 8 µM): 0.613
relative viability (LCLC-103H; first compound 0.253 µM): 0.364
relative viability (LCLC-103H; first compound 0.8 µM): 0.327
relative viability (LCLC-103H; first compound 2.53 µM): 0.352
relative viability (LCLC-103H; first compound 8 µM): 0.257
relative viability (NCI-H647; first compound 0.253 µM): 0.438
relative viability (NCI-H647; first compound 0.8 µM): 0.487
relative viability (NCI-H647; first compound 2.53 µM): 0.703
relative viability (NCI-H647; first compound 8 µM): 0.581
relative viability (HCC-827; first compound 0.253 µM): 0.408
relative viability (HCC-827; first compound 0.8 µM): 0.425
relative viability (HCC-827; first compound 2.53 µM): 0.432
relative viability (HCC-827; first compound 8 µM): 0.437
relative viability (EKVX; first compound 0.253 µM): 0.23
relative viability (EKVX; first compound 0.8 µM): 0.211
relative viability (EKVX; first compound 2.53 µM): 0.241
relative viability (EKVX; first compound 8 µM): 0.196
relative viability (NCI-H1755; first compound 0.253 µM): 0.627
relative viability (NCI-H1755; first compound 0.8 µM): 0.615
relative viability (NCI-H1755; first compound 2.53 µM): 0.682
relative viability (NCI-H1755; first compound 8 µM): 0.536
relative viability (HOP-62; first compound 0.253 µM): 0.611
relative viability (HOP-62; first compound 0.8 µM): 0.733
relative viability (HOP-62; first compound 2.53 µM): 0.736
relative viability (HOP-62; first compound 8 µM): 0.705
relative viability (HCC-15; first compound 0.253 µM): 0.474
relative viability (HCC-15; first compound 0.8 µM): 0.489
relative viability (HCC-15; first compound 2.53 µM): 0.53
relative viability (HCC-15; first compound 8 µM): 0.482
relative viability (PC-3 [JPC-3]; first compound 0.253 µM): 0.482
relative viability (PC-3 [JPC-3]; first compound 0.8 µM): 0.432
relative viability (PC-3 [JPC-3]; first compound 2.53 µM): 0.502
relative viability (PC-3 [JPC-3]; first compound 8 µM): 0.511
relative viability (NCI-H2009; first compound 0.253 µM): 0.454
relative viability (NCI-H2009; first compound 0.8 µM): 0.517
relative viability (NCI-H2009; first compound 2.53 µM): 0.518
relative viability (NCI-H2009; first compound 8 µM): 0.528
relative viability (UMC-11; first compound 0.253 µM): 0.317
relative viability (UMC-11; first compound 0.8 µM): 0.328
relative viability (UMC-11; first compound 2.53 µM): 0.389
relative viability (UMC-11; first compound 8 µM): 0.339
relative viability (EPLC-272H; first compound 0.253 µM): 0.282
relative viability (EPLC-272H; first compound 0.8 µM): 0.341
relative viability (EPLC-272H; first compound 2.53 µM): 0.318
relative viability (EPLC-272H; first compound 8 µM): 0.224
relative viability (201T; first compound 0.253 µM): 0.448
relative viability (201T; first compound 2.53 µM): 0.444
relative viability (201T; first compound 8 µM): 0.404
relative viability (COR-L 105; first compound 0.253 µM): 0.464
relative viability (COR-L 105; first compound 0.8 µM): 0.523
relative viability (COR-L 105; first compound 2.53 µM): 0.554
relative viability (COR-L 105; first compound 8 µM): 0.513
relative viability (SK-LU-1; first compound 0.253 µM): 0.539
relative viability (SK-LU-1; first compound 0.8 µM): 0.595
relative viability (SK-LU-1; first compound 2.53 µM): 0.693
relative viability (SK-LU-1; first compound 8 µM): 0.472
relative viability (NCI-H1437; first compound 0.253 µM): 0.276
relative viability (NCI-H1437; first compound 0.8 µM): 0.248
relative viability (NCI-H1437; first compound 2.53 µM): 0.839
relative viability (NCI-H1437; first compound 8 µM): 0.363
relative viability (CAL-12T; first compound 0.253 µM): 0.548
relative viability (CAL-12T; first compound 0.8 µM): 0.633
relative viability (CAL-12T; first compound 2.53 µM): 0.639
relative viability (CAL-12T; first compound 8 µM): 0.647
relative viability (NCI-H322M; first compound 0.253 µM): 0.801
relative viability (NCI-H322M; first compound 0.8 µM): 0.894
relative viability (NCI-H322M; first compound 2.53 µM): 0.863
relative viability (NCI-H322M; first compound 8 µM): 0.846
relative viability (NCI-H522; first compound 0.253 µM): 0.645
relative viability (NCI-H522; first compound 2.53 µM): 0.643
relative viability (NCI-H522; first compound 8 µM): 0.573
